This assay concerns clec-60::GFP. The assay can be described thus: Immune GFP reporter induction, transgene agIs26. It is filed as in vivo, Caenorhabditis elegans. The conditions noted are these: compound-exposed versus DMSO-exposed animals, visual. An excerpt: Caenorhabditis elegans strains were maintained on Escherichia coli OP50 as described in Brenner, Genetics, 1974, 77:71-94. Wildtype N2 nematodes carrying integrated transgenes acIs219 (AU78), acIs101(AY101), agIs17(AU133), or agIs26 (AU185) (see (1) Shivers, et al., PLoS. Genet. 2010, 6: e1000892, (2) Bolz et al., J. Biol. Chem. 2010, 285:10832-40, (3) Estes et al., Proc. Natl. Acad. Sci., 2010, 107:2153-8, and (4) Irazoqui et al., Proc. Natl. Acad. Sci., 2008, 105:17469-74) were used to assay the immunomodulatory activity of candidate compounds. […] Fold change was calculated using the Pfaffl method (see Pfaffl et al., Nucleic Acids Res., 2001, 29:e45).
Without wishing to be bound by theory, it was hypothesized that a subset of these compounds cured nematode infection by directly activating the innate immune response of the animal. […] First, the inventors studied four C. elegans strains in which the promoter of the nematode immune response genes T24B8.5, F35E12.5, irg-1 and clec-60 were individually fused to GFP, generating transgenes acIs219 (AU78), acIs101(AY101), agIs17(AU133), or agIs26 (AU185), respectively, thereby allowing a visual readout of gene activity in each strain. […]

For `NNc1ccc2c(Cl)cc(Cl)c(O)c2n1` [Compound 11], the “immune reporter induction clec-60::GFP” value is recorded as “+”.

The values above are taken from patent US9241928B2, “Antimicrobial compounds” (The General Hospital Corporation, priority 2009, dated 2016).
